Data as given in the NIST ThermoML archive (doi:10.1016/j.fluid.2017.12.026).
Where “and” joins values, the source holds several entries; their conditions need not be identical. Equal entries are not always repeated.

Conditions: Coaxial cylinder method

CCCCC [pentane]
Conditions | thermal conductivity
309.04 K, 260 kPa, Liquid | 0.109 W/m/K
309.04 K, 261 kPa, Liquid | 0.1092 W/m/K
309.04 K, 1000 kPa, Liquid | 0.1095 W/m/K
309.04 K, 2000 kPa, Liquid | 0.1101 W/m/K
309.04 K, 3012 kPa, Liquid | 0.1108 W/m/K
309.04 K, 4151 kPa, Liquid | 0.1118 W/m/K
309.04 K, 4297 kPa, Liquid | 0.1117 W/m/K
309.04 K, 5604 kPa, Liquid | 0.1123 W/m/K
309.04 K, 6001 kPa, Liquid | 0.1125 W/m/K
309.04 K, 7000 kPa, Liquid | 0.113 W/m/K
309.04 K, 8108 kPa, Liquid | 0.1137 W/m/K
309.04 K, 9011 kPa, Liquid | 0.1142 W/m/K
309.04 K, 10008 kPa, Liquid | 0.1154 W/m/K
309.04 K, 11054 kPa, Liquid | 0.1161 W/m/K
309.04 K, 12000 kPa, Liquid | 0.1167 W/m/K
309.04 K, 12504 kPa, Liquid | 0.1168 W/m/K
309.04 K, 13000 kPa, Liquid | 0.1171 W/m/K
309.04 K, 14742 kPa, Liquid | 0.1181 W/m/K
309.04 K, 19800 kPa, Liquid | 0.1207 W/m/K
309.04 K, 19908 kPa, Liquid | 0.1205 W/m/K
309.04 K, 20004 kPa, Liquid | 0.1206 W/m/K
309.04 K, 24000 kPa, Liquid | 0.1231 W/m/K
309.04 K, 25000 kPa, Liquid | 0.1233 W/m/K
309.04 K, 28000 kPa, Liquid | 0.1241 W/m/K
309.04 K, 29100 kPa, Liquid | 0.1253 W/m/K
309.04 K, 29300 kPa, Liquid | 0.1256 W/m/K
309.04 K, 34000 kPa, Liquid | 0.1281 W/m/K
309.04 K, 35000 kPa, Liquid | 0.1286 W/m/K
309.04 K, 38000 kPa, Liquid | 0.1298 W/m/K
309.04 K, 39100 kPa, Liquid | 0.1299 W/m/K
309.04 K, 39176 kPa, Liquid | 0.13 W/m/K
309.04 K, 39350 kPa, Liquid | 0.1304 W/m/K
309.04 K, 49940 kPa, Liquid | 0.1352 W/m/K
309.04 K, 50230 kPa, Liquid | 0.1353 W/m/K
309.04 K, 50800 kPa, Liquid | 0.1352 W/m/K
315.55 K, 100 kPa, Gas | 0.01635 W/m/K
331.2 K, 2097 kPa, Liquid | 0.1035 W/m/K
331.2 K, 3000 kPa, Liquid | 0.1041 W/m/K
331.2 K, 3500 kPa, Liquid | 0.1045 W/m/K
331.2 K, 4000 kPa, Liquid | 0.1046 W/m/K
331.2 K, 5000 kPa, Liquid | 0.1053 W/m/K
331.2 K, 6000 kPa, Liquid | 0.1061 W/m/K
331.2 K, 7000 kPa, Liquid | 0.1068 W/m/K
331.2 K, 8000 kPa, Liquid | 0.1069 W/m/K
331.2 K, 9000 kPa, Liquid | 0.1072 W/m/K
331.2 K, 9500 kPa, Liquid | 0.1077 W/m/K
331.2 K, 10000 kPa, Liquid | 0.1078 W/m/K
331.2 K, 11000 kPa, Liquid | 0.1085 W/m/K
331.2 K, 12000 kPa, Liquid | 0.109 W/m/K
331.2 K, 13000 kPa, Liquid | 0.1094 W/m/K
331.2 K, 15000 kPa, Liquid | 0.1109 W/m/K
331.2 K, 16000 kPa, Liquid | 0.1115 W/m/K
331.2 K, 17000 kPa, Liquid | 0.1122 W/m/K
331.2 K, 18000 kPa, Liquid | 0.1126 W/m/K
331.2 K, 19000 kPa, Liquid | 0.1131 W/m/K
331.2 K, 20000 kPa, Liquid | 0.1139 W/m/K
331.2 K, 21000 kPa, Liquid | 0.1141 W/m/K
331.2 K, 22000 kPa, Liquid | 0.1148 W/m/K
331.2 K, 24000 kPa, Liquid | 0.1158 W/m/K
331.2 K, 25482 kPa, Liquid | 0.1167 W/m/K
331.2 K, 26404 kPa, Liquid | 0.1172 W/m/K
331.2 K, 27000 kPa, Liquid | 0.1176 W/m/K
331.2 K, 30000 kPa, Liquid | 0.1188 W/m/K
331.2 K, 31040 kPa, Liquid | 0.1193 W/m/K
331.2 K, 31081 kPa, Liquid | 0.1193 W/m/K
331.2 K, 32500 kPa, Liquid | 0.1202 W/m/K
331.2 K, 33500 kPa, Liquid | 0.1209 W/m/K
331.2 K, 34477 kPa, Liquid | 0.1211 W/m/K
331.2 K, 35500 kPa, Liquid | 0.1216 W/m/K
331.2 K, 36500 kPa, Liquid | 0.1224 W/m/K
331.2 K, 37885 kPa, Liquid | 0.1229 W/m/K
331.2 K, 38500 kPa, Liquid | 0.1231 W/m/K
331.2 K, 39000 kPa, Liquid | 0.1237 W/m/K
331.2 K, 39500 kPa, Liquid | 0.1239 W/m/K
331.2 K, 40000 kPa, Liquid | 0.1241 W/m/K
331.2 K, 41000 kPa, Liquid | 0.1242 W/m/K
331.2 K, 42000 kPa, Liquid | 0.1246 W/m/K
331.2 K, 43500 kPa, Liquid | 0.1255 W/m/K
331.2 K, 44500 kPa, Liquid | 0.1261 W/m/K
331.2 K, 45500 kPa, Liquid | 0.1266 W/m/K
331.2 K, 47000 kPa, Liquid | 0.1272 W/m/K
331.2 K, 48000 kPa, Liquid | 0.1273 W/m/K
331.2 K, 49500 kPa, Liquid | 0.1283 W/m/K
331.2 K, 50000 kPa, Liquid | 0.1278 W/m/K
386 K, 5061 kPa, Liquid | 0.09007 W/m/K
386 K, 10175 kPa, Liquid | 0.09446 W/m/K
386 K, 18875 kPa, Liquid | 0.0996 W/m/K
386 K, 20275 kPa, Liquid | 0.1023 W/m/K
386 K, 30275 kPa, Liquid | 0.1082 W/m/K
386 K, 34475 kPa, Liquid | 0.1107 W/m/K
386 K, 40275 kPa, Liquid | 0.1122 W/m/K
386 K, 49975 kPa, Liquid | 0.1184 W/m/K
386 K, 53475 kPa, Liquid | 0.1203 W/m/K
387.83 K, 75 kPa, Gas | 0.02437 W/m/K
387.83 K, 100 kPa, Gas | 0.02484 W/m/K
399.6 K, 2900 kPa, Liquid | 0.08457 W/m/K
399.6 K, 3000 kPa, Liquid | 0.08493 W/m/K
399.6 K, 4000 kPa, Liquid | 0.08522 W/m/K
399.6 K, 4500 kPa, Liquid | 0.08602 W/m/K
399.6 K, 5000 kPa, Liquid | 0.0869 W/m/K
399.6 K, 6000 kPa, Liquid | 0.088 W/m/K
399.6 K, 7000 kPa, Liquid | 0.08901 W/m/K
399.6 K, 7500 kPa, Liquid | 0.08952 W/m/K
399.6 K, 8000 kPa, Liquid | 0.0899 W/m/K
399.6 K, 9500 kPa, Liquid | 0.09127 W/m/K
399.6 K, 10000 kPa, Liquid | 0.09171 W/m/K
399.6 K, 11000 kPa, Liquid | 0.09237 W/m/K
399.6 K, 12000 kPa, Liquid | 0.09323 W/m/K
399.6 K, 13000 kPa, Liquid | 0.09372 W/m/K
399.6 K, 14000 kPa, Liquid | 0.09464 W/m/K
399.6 K, 15000 kPa, Liquid | 0.09518 W/m/K
399.6 K, 16000 kPa, Liquid | 0.09601 W/m/K
399.6 K, 17000 kPa, Liquid | 0.09671 W/m/K
399.6 K, 18000 kPa, Liquid | 0.09742 W/m/K
399.6 K, 19000 kPa, Liquid | 0.09836 W/m/K
399.6 K, 20000 kPa, Liquid | 0.0989 W/m/K
399.6 K, 21000 kPa, Liquid | 0.09955 W/m/K
399.6 K, 22000 kPa, Liquid | 0.1001 W/m/K
399.6 K, 23500 kPa, Liquid | 0.1011 W/m/K
399.6 K, 25000 kPa, Liquid | 0.1022 W/m/K
399.6 K, 26000 kPa, Liquid | 0.1026 W/m/K
399.6 K, 27000 kPa, Liquid | 0.1031 W/m/K
399.6 K, 28000 kPa, Liquid | 0.1037 W/m/K
399.6 K, 29000 kPa, Liquid | 0.1047 W/m/K
399.6 K, 30000 kPa, Liquid | 0.1051 W/m/K
399.6 K, 31000 kPa, Liquid | 0.1056 W/m/K
399.6 K, 33000 kPa, Liquid | 0.1066 W/m/K
399.6 K, 34000 kPa, Liquid | 0.1071 W/m/K
399.6 K, 35000 kPa, Liquid | 0.1076 W/m/K
399.6 K, 35301 kPa, Liquid | 0.1079 W/m/K
421.85 K, 100 kPa, Gas | 0.02874 W/m/K and 0.02895 W/m/K
421.85 K, 1640 kPa, Liquid | 0.07566 W/m/K
421.85 K, 1650 kPa, Liquid | 0.07566 W/m/K
421.85 K, 1660 kPa, Liquid | 0.07566 W/m/K
421.85 K, 1680 kPa, Liquid | 0.07566 W/m/K
421.85 K, 1700 kPa, Liquid | 0.07566 W/m/K
421.85 K, 1710 kPa, Liquid | 0.07566 W/m/K
421.85 K, 1720 kPa, Liquid | 0.07566 W/m/K
421.85 K, 1730 kPa, Liquid | 0.07596 W/m/K
421.85 K, 1750 kPa, Liquid | 0.07566 W/m/K
421.85 K, 1764 kPa, Liquid | 0.07568 W/m/K
421.85 K, 1772 kPa, Liquid | 0.07584 W/m/K
421.85 K, 1910 kPa, Liquid | 0.07624 W/m/K
421.85 K, 1946 kPa, Liquid | 0.0762 W/m/K
421.85 K, 1954 kPa, Liquid | 0.07621 W/m/K
422.2 K, 2518 kPa, Liquid | 0.07714 W/m/K
422.2 K, 5041 kPa, Liquid | 0.08091 W/m/K
422.2 K, 10475 kPa, Liquid | 0.08676 W/m/K
422.2 K, 18675 kPa, Liquid | 0.09347 W/m/K
422.2 K, 18775 kPa, Liquid | 0.09348 W/m/K
422.2 K, 20475 kPa, Liquid | 0.09413 W/m/K
422.2 K, 30575 kPa, Liquid | 0.1002 W/m/K
422.2 K, 30675 kPa, Liquid | 0.1007 W/m/K
422.2 K, 40275 kPa, Liquid | 0.1061 W/m/K
422.2 K, 48075 kPa, Liquid | 0.1104 W/m/K
422.2 K, 52975 kPa, Liquid | 0.1123 W/m/K
425.73 K, 100 kPa, Gas | 0.02926 W/m/K
425.74 K, 1560 kPa, Gas | 0.0319 W/m/K
425.8 K, 100 kPa, Gas | 0.0294 W/m/K
425.82 K, 100 kPa, Gas | 0.02926 W/m/K
426.24 K, 100 kPa, Gas | 0.02935 W/m/K
426.25 K, 100 kPa, Gas | 0.02935 W/m/K
426.25 K, 1210 kPa, Gas | 0.0316 W/m/K
426.25 K, 1280 kPa, Gas | 0.03151 W/m/K
